Series [1] concerns HIV-1 isolates from patient plasma samples. Format: cell-based. As to conditions: for FC value: isolate 4 (K65R+M184V, R211S, K219E); for fold reduction in susceptibility: patient isolates 20 and 21, isolate not specified, compared to wildtype. As for the experimental part: The susceptibility of 2′,3′-dideoxy-3′-C-hydroxymethyl-cytosine on HIV-1 isolates from patient plasma samples that bear typical TAM primer rescue mutant resistant genotypes is determined by the commercially available PhenoSense HIV assay (described in Petropoulos, C J et al., (2000) Antimicrob. Agents Chemother. 44:920-928 and performed by ViroLogics, Inc). The assay is performed by amplifying the protease (PR)-RT segment of the HIV pol gene from patient plasma and inserting the amplification products into a modified HIV-1 vector derived from an NL4-3 molecular clone.
Viral stocks are prepared by co-transfecting 293 cell cultures with recombinant viral DNA vector and an expression vector that produces the amphotropic murine leukemia virus envelope proteins. Pseudotyped virus particles are harvested from the transfected cell cultures and are used to infect fresh 293 cell cultures. The recombinant viral DNA contains a luciferase gene cassette within the HIV env gene region and the production of luciferase in target cells is dependent on the completion of one round of virus replication. Drug susceptibility is measured by adding serial concentrations of the compound of the invention and the reference compounds to the cells. Drugs that inhibit virus replication reduce luciferase signal in a dose-dependent manner, providing a quantitative measure of drug susceptibility.

Series [2] can be described thus: Release of parent compound from prodrugs in pooled human plasma. Format: in vitro ADME. As to conditions: 37C, spiked with 5 uM of the prodrug. As for the experimental part:
Confirmation that the prodrugs of the invention convert completely to active 2′3′-dideoxy-3′-C-hydromethylcytosine parent compound can be assessed by monitoring the appearance of the parent compound in pooled human plasma, 37C, spiked with 5 uM of the prodrug: […]

`Nc1nc(NC2CC2)c2ncn([C@H]3C=C[C@@H](CO)C3)c2n1` [ABC, abacavir]: in series [1], the FC value is listed as over 9.0 and the “fold reduction in susceptibility” value is “lost potency”.
As for `Nc1ccn([C@@H]2CS[C@H](CO)O2)c(=O)n1` [Compound 3TC, lamivudine], in series [1], the FC value was over 200.
In the case of `CC(C)[C@H](N)C(=O)OCC1CC(n2ccc(N)nc2=O)OC1CO` (stereo partly drawn) [Compound 5, 2′-3′-dideoxy-3-C-(L-valyl-oxymethyl)cytosine], in series [2], the “Concentration of parent uM 5 min” value is 0.4 µM, the “Concentration of parent uM 20 min” value stood at 1.0 µM and the “Concentration of parent uM O min” value is 0 µM.
In the same order, the values of `CC(C)[C@H](N)C(=O)OCC1CC(n2ccc(N)nc2=O)OC1COC(=O)[C@@H](N)C(C)C` (stereo partly drawn) [Compound 8, 5′-O-L-valyl-2′,3′-dideoxy-3′-C-L-valyloxymethylcytosine] are 0.2 µM, 0.3 µM and 0.1 µM.
In the same order, the values of `CC(C)[C@H](N)C(=O)O[C@@H](C)C(=O)OCC1CC(n2ccc(N)nc2=O)OC1CO` (stereo partly drawn) [Compound 14, 2′,3′-dideoxy-3′-C-[2-S-(L-valyloxy)-propionyl]-oxymethylcytosine] are 4.5 µM, 4.6 µM and 4.6 µM.
In the same order, the values of `CCCCC(=O)OCC1CC(n2ccc(N)nc2=O)OC1COC(=O)CCCC` (centres unmarked) [Compound 22, 5′-O-pentanoyl-2′-3′-dideoxy-3-C-pentanoyl-oxymethylcytosine] are 4.0 µM, 4.5 µM and 4.2 µM.
For `CCCCC(=O)OC[C@H]1C[C@H](n2ccc(N)nc2=O)O[C@@H]1CO` [Compound 24, 2′,3′-dideoxy-3′-C-pentanoyl-oxymethylcytosine], in series [2], the “Concentration of parent uM 5 min” value was 4.2 µM, the “Concentration of parent uM 20 min” value is 4.4 µM and the “Concentration of parent uM O min” value worked out at 3.9 µM.
Regarding `Nc1nc(=O)n([C@@H]2CS[C@H](CO)O2)cc1F` [FTC, emtricitabine], in series [1], the FC value is over 40 and the “fold reduction in susceptibility” value is reported as “lost potency”.
Take `C[C@H](Cn1cnc2c(N)ncnc21)OCP(=O)(O)O` [TNF, tenofovir]: the “fold reduction in susceptibility” value in series [1] was “lost potency”.
As for `Cc1cn([C@H]2C=C[C@@H](CO)O2)c(=O)[nH]c1=O` [d4T, stavudine], in series [1], the FC value amounted to 0.71 and the “fold reduction in susceptibility” value was “lost potency”.

(Values after patent US7829548B2, “Compounds useful in the treatment of HIV” (Medivir AB, priority 2004, dated 2010).)
